Measured values: ChEMBL document CHEMBL3232845 (Bioorg Med Chem Lett, 2014)

Columns and labels:
Design in all cases: scale not given: the % may be the effect or the level left
[1] = biological target: Serine/threonine-protein kinase WNK2 (Homo sapiens) (UniProt Q9Y3S1); experiment: Inhibition of human WNK2 assessed as enzyme activity at 1 uM relative to control
[2] = biological target: Tyrosine-protein kinase Fer (Homo sapiens) (UniProt P16591); experiment: Inhibition of human Fer assessed as enzyme activity at 1 uM relative to control
[3] = biological target: Serine/threonine-protein kinase Chk2 (Homo sapiens) (UniProt O96017); experiment: Inhibition of human CHK2 assessed as enzyme activity at 1 uM relative to control
[4] = biological target: Serine/threonine-protein kinase 17A (Homo sapiens) (UniProt Q9UEE5); experiment: Inhibition of human DRAK1 assessed as enzyme activity at 1 uM relative to control
[5] = biological target: Ephrin type-A receptor 3 (Homo sapiens) (UniProt P29320); experiment: Inhibition of human EphA3 assessed as enzyme activity at 1 uM relative to control
[6] = biological target: Ribosomal protein S6 kinase alpha-5 (Homo sapiens) (UniProt O75582); experiment: Inhibition of human MSK1 assessed as enzyme activity at 1 uM relative to control
[7] = biological target: Tyrosine-protein kinase ITK/TSK (Homo sapiens) (UniProt Q08881); experiment: Inhibition of human ITK assessed as enzyme activity at 1 uM relative to control
Tyrosine-protein kinase ITK/TSK (Homo sapiens), sequence (Q08881 whole entry): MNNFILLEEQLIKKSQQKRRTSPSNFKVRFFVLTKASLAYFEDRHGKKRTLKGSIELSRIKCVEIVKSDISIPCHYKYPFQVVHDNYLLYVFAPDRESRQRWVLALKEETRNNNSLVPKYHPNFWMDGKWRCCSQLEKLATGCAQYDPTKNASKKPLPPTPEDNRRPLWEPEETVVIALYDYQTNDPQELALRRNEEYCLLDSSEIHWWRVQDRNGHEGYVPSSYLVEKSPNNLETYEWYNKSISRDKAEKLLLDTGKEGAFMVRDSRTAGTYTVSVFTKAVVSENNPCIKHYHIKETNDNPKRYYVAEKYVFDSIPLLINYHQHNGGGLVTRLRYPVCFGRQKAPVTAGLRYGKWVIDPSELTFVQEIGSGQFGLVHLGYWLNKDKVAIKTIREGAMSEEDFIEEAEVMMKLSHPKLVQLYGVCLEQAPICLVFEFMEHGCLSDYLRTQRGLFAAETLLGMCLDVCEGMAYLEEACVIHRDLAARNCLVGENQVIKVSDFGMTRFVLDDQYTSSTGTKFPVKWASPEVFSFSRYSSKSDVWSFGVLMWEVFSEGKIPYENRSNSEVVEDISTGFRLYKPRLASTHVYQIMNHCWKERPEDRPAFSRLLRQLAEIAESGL

Serine/threonine-protein kinase Chk2 (Homo sapiens), sequence (O96017 whole entry): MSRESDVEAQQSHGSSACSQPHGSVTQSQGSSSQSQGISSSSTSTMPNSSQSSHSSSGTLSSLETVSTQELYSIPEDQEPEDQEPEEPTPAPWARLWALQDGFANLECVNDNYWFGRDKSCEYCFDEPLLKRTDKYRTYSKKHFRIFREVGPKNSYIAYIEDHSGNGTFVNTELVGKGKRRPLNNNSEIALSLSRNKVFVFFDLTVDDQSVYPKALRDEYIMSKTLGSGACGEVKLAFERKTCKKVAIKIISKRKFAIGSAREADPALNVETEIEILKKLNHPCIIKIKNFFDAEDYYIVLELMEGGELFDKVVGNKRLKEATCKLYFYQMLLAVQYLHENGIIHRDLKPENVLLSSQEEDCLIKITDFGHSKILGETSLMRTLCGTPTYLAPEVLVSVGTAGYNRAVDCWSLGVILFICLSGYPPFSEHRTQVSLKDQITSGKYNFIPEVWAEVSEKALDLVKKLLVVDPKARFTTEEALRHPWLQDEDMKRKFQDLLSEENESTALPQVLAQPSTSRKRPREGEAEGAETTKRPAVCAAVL
Tyrosine-protein kinase Fer (Homo sapiens), sequence (P16591 whole entry, looked up): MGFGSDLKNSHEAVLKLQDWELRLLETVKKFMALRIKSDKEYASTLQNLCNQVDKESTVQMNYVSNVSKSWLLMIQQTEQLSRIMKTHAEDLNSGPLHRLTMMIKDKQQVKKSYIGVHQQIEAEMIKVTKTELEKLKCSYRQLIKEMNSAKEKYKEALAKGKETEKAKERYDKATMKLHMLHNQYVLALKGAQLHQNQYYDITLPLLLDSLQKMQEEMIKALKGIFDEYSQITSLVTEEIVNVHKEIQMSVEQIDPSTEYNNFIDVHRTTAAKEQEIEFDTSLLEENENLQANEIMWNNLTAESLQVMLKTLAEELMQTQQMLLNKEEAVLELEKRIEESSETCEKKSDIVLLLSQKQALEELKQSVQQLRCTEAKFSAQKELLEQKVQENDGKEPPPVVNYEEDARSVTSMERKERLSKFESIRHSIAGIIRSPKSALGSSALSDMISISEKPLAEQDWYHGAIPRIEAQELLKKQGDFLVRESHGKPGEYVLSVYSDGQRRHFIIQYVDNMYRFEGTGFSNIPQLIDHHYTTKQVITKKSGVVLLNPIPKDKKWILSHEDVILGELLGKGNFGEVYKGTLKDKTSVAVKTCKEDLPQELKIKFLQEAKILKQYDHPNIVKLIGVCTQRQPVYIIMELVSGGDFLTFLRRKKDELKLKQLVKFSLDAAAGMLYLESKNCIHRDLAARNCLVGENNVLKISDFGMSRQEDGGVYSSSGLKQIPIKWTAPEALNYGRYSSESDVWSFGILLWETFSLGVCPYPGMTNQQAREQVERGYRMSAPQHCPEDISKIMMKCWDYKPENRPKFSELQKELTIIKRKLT
Serine/threonine-protein kinase WNK2 (Homo sapiens), sequence (Q9Y3S1 whole entry): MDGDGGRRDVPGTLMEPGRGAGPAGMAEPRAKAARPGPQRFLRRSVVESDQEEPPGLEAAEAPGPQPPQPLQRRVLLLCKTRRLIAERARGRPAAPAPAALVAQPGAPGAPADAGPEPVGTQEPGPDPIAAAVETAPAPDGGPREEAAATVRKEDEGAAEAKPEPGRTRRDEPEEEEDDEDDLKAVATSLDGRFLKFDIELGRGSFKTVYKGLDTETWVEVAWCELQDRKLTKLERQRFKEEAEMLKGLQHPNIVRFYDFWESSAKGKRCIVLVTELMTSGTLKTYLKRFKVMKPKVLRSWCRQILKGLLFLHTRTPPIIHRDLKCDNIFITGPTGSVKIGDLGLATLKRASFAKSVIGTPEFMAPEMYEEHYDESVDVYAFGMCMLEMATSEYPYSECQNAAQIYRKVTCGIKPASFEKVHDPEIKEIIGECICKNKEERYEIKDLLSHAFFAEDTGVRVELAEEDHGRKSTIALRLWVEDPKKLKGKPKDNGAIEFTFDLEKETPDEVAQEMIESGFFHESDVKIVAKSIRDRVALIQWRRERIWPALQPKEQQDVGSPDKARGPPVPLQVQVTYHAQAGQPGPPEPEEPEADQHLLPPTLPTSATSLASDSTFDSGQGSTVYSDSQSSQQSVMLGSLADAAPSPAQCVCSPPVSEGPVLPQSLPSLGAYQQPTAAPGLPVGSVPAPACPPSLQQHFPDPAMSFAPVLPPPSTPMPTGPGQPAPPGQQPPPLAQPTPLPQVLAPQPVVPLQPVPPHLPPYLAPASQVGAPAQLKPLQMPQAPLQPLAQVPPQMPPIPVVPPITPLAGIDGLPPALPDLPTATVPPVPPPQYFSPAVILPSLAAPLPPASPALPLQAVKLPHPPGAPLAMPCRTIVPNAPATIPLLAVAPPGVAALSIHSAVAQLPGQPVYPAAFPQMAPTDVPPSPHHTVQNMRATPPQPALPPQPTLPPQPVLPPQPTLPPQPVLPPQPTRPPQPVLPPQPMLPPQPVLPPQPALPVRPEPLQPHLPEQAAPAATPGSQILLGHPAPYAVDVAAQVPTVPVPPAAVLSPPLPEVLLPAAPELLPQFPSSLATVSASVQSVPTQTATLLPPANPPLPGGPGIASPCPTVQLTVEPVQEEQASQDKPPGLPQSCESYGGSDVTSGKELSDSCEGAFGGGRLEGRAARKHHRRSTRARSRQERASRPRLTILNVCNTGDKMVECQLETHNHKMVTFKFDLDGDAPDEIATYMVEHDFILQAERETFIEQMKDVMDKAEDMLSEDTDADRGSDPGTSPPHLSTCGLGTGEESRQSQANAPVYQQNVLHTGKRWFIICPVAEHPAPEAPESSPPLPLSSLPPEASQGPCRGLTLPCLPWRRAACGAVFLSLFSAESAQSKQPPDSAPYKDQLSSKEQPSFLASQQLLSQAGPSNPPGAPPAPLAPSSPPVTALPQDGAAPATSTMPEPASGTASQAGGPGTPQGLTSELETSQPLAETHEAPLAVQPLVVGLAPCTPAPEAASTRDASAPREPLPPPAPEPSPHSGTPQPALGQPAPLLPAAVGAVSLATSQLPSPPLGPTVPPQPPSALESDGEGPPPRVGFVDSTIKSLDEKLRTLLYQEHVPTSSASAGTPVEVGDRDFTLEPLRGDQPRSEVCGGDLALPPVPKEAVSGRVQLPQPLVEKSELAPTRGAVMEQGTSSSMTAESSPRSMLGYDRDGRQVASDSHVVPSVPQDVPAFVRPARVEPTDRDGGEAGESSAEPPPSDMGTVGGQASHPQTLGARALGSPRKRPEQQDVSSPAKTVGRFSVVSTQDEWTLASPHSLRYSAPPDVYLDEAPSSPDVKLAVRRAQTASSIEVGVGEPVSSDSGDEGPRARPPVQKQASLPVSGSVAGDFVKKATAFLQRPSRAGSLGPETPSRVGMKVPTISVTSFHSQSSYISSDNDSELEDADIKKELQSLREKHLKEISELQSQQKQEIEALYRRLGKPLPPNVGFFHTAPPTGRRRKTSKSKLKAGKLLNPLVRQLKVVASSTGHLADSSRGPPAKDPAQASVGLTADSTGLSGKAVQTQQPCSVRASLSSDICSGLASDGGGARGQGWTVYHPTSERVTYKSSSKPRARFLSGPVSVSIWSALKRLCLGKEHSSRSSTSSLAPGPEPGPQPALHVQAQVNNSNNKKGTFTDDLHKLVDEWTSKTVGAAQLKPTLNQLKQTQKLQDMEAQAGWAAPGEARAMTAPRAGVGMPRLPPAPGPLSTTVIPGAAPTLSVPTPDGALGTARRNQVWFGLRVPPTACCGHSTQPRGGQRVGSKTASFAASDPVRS
Ribosomal protein S6 kinase alpha-5 (Homo sapiens), sequence (O75582 whole entry, looked up): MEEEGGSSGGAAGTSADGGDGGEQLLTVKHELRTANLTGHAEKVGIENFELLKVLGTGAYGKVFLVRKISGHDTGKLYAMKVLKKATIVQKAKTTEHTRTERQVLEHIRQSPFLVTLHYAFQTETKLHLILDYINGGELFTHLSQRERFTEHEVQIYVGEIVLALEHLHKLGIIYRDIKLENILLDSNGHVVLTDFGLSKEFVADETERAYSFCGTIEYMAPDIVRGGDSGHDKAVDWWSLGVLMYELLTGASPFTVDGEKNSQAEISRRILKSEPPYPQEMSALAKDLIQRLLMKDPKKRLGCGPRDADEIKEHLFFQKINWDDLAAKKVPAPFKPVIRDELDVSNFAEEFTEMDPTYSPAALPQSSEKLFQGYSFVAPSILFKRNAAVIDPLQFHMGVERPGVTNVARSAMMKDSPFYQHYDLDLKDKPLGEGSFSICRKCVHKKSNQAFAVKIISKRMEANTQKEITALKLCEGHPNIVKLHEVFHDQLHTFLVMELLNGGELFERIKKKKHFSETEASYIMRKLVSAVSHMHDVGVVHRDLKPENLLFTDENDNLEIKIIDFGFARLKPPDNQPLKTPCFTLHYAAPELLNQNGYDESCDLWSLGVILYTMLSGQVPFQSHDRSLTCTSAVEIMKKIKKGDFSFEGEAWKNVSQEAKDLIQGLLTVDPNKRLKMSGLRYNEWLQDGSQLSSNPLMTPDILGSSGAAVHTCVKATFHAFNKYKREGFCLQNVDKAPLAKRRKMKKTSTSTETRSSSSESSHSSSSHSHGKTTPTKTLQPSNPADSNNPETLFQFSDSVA

## CCCS(=O)(=O)Nc1cccc(Nc2ccc3ncn(C)c(=O)c3c2)c1C#N
[1]
  Activity: 100%
[2]
  Activity: 114%
[3]
  Activity: 100%
[4]
  Activity: 120%
[5]
  Activity: 108%
[6]
  Activity: 132%
[7]
  Activity: 102%
